Experimental data published in ChEMBL document CHEMBL3286334, “Identification of tetrapeptides from a mixture based positional scanning library that can restore nM full agonist function of the L106P, I69T, I102S, A219V, C271Y, and C271R human melanocortin-4 polymorphic receptors (hMC4Rs)” (J Med Chem, 2014).

Assays:
Format in all cases: functional, cell-based
Melanocortin receptor 4 [1] = target: T1, Melanocortin receptor 4 (Homo sapiens, UniProt P32245); test: Agonist activity at wild type human melanocortin-4 receptor expressed in HEK293 cells co-transfected with CRE/beta-galactosidase reporter gene assessed as stimulatory response after 6 hrs
Melanocortin receptor 4 [2] = target: Melanocortin receptor 4 (Homo sapiens, UniProt P32245, I69T); test: Agonist activity at human melanocortin-4 receptor I69T mutant expressed in HEK293 cells co-transfected with CRE/beta-galactosidase reporter gene assessed as stimulatory response after 6 hrs
Melanocortin receptor 4 [3] = target: Melanocortin receptor 4 (Mus musculus, UniProt P56450); test: Agonist activity at mouse melanocortin-4 receptor expressed in HEK293 cells co-transfected with CRE/beta-galactosidase reporter gene assessed as stimulatory response after 6 hrs
Melanocortin receptor 4 [4] = target: Melanocortin receptor 4 (Homo sapiens, UniProt P32245, L106P); test: Agonist activity at human melanocortin-4 receptor L106P mutant expressed in HEK293 cells co-transfected with CRE/beta-galactosidase reporter gene assessed as stimulatory response after 6 hrs
Melanocortin receptor 4 [5] = target: Melanocortin receptor 4 (Homo sapiens, UniProt P32245, C271R); test: Agonist activity at human melanocortin-4 receptor C271R mutant expressed in HEK293 cells co-transfected with CRE/beta-galactosidase reporter gene assessed as stimulatory response after 6 hrs
Melanocortin receptor 4 [6] = target: Melanocortin receptor 4 (Homo sapiens, UniProt P32245, C271Y); test: Agonist activity at human melanocortin-4 receptor C271Y mutant expressed in HEK293 cells co-transfected with CRE/beta-galactosidase reporter gene assessed as stimulatory response after 6 hrs
[7] = target: Melanocyte-stimulating hormone receptor (Mus musculus, UniProt Q01727); test: Agonist activity at mouse melanocortin-1 receptor expressed in HEK293 cells co-transfected with CRE/beta-galactosidase reporter gene assessed as stimulatory response after 6 hrs
Melanocortin receptor 5 = Melanocortin receptor 5 (Mus musculus, UniProt P41149); test: Agonist activity at mouse melanocortin-5 receptor expressed in HEK293 cells co-transfected with CRE/beta-galactosidase reporter gene assessed as stimulatory response after 6 hrs
Melanocortin receptor 4 [8] = target: Melanocortin receptor 4 (Homo sapiens, UniProt P32245, I102S); test: Agonist activity at human melanocortin-4 receptor I102S mutant expressed in HEK293 cells co-transfected with CRE/beta-galactosidase reporter gene assessed as stimulatory response after 6 hrs
Melanocortin receptor 4 [9] = target: Melanocortin receptor 4 (Homo sapiens, UniProt P32245, A219V); test: Agonist activity at human melanocortin-4 receptor A219V mutant expressed in HEK293 cells co-transfected with CRE/beta-galactosidase reporter gene assessed as stimulatory response after 6 hrs
[10] = system: Melanocortin receptor 4 (Homo sapiens), P32245 [L106P]; test: Agonist activity at human melanocortin-4 receptor L106P mutant expressed in HEK293 cells co-transfected with CRE/beta-galactosidase reporter gene assessed as stimulatory response at 10 uM after 6 hrs
Melanocortin receptor 4 [11] = target: T1, Melanocortin receptor 4; test: Agonist activity at wild type human melanocortin-4 receptor expressed in HEK293 cells co-transfected with CRE/beta-galactosidase reporter gene assessed as stimulatory response at 100 uM after 6 hrs
[12] = system: Melanocortin receptor 4 (Homo sapiens), P32245 [L106P]; test: Agonist activity at human melanocortin-4 receptor L106P mutant expressed in HEK293 cells co-transfected with CRE/beta-galactosidase reporter gene assessed as stimulatory response at 100 uM after 6 hrs

Compound | EC50 (Melanocortin receptor 4 [1]) | EC50 (Melanocortin receptor 4 [2]) | EC50 (Melanocortin receptor 4 [3]) | EC50 (Melanocortin receptor 4 [4]) | EC50 (Melanocortin receptor 4 [5]) | EC50 (Melanocortin receptor 4 [6]) | EC50 [7] | EC50 (Melanocortin receptor 5) | EC50 (Melanocortin receptor 4 [8]) | EC50 (Melanocortin receptor 4 [9]) | Activity [10] | Activity (Melanocortin receptor 4 [11]) | Activity [12]
CC(=O)N[C@@H](CCCNC(=N)N)C(=O)N[C@H](Cc1ccc(Cl)cc1)C(=O)N1Cc2ccccc2C[C@H]1C(=O)N[C@H](Cc1ccc([N+](=O)[O-])cc1)C(N)=O | 0.21 nM | 5.2 nM | 7.6 nM | 3.4 nM | 3390 nM | 470 nM | 22 nM | 1 nM | 4.4 nM | 4.2 nM | – | – | –
CC(=O)N1Cc2ccccc2CC1C(=O)N[C@H](Cc1ccc(I)cc1)C(=O)N1Cc2ccccc2CC1C(=O)N[C@@H](Cc1ccc(I)cc1)C(N)=O (stereo partly drawn) | – | – | – | – | – | – | – | – | – | – | 70% | – | –
CC(=O)N[C@@H](Cc1c[nH]cn1)C(=O)N[C@H](Cc1ccc(I)cc1)C(=O)N1Cc2ccccc2C[C@H]1C(=O)N[C@H](Cc1ccc([N+](=O)[O-])cc1)C(N)=O | 0.24 nM | 3.8 nM | 2.4 nM | 10 nM | 295 nM | 190 nM | 2.9 nM | 0.84 nM | 14 nM | 4.5 nM | – | – | –
CC(=O)N[C@@H](Cc1c[nH]cn1)C(=O)N[C@H](Cc1ccc(Cl)cc1)C(=O)N1Cc2ccccc2C[C@H]1C(=O)N[C@H](Cc1ccc([N+](=O)[O-])cc1)C(N)=O | 0.4 nM | 4.3 nM | 5.2 nM | 15 nM | 130 nM | 82 nM | 4 nM | 0.63 nM | 3 nM | 2.8 nM | – | – | –
CC(=O)N1Cc2ccccc2CC1C(=O)N[C@H](Cc1ccc(I)cc1)C(=O)N1Cc2ccccc2CC1C(=O)N1Cc2ccccc2CC1C(N)=O (stereo partly drawn) | – | – | – | – | – | – | – | – | – | – | – | 50% | 50%
